One assay has as its target T1, XIAP BIR3 (Homo sapiens, UniProt P98170).
T1 construct: His-BIR3 (241-356, XIAP)
Nature of the assay: XIAP-BIR3/SMAC Homogeneous Time Resolved Fluorescence (HTRF) Assay. The assay is classed as binding. In short, it runs like this:
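Competition HTRF between XIAP-BIR3 and SMAC; reaction 60 min at room temperature, then anti-6×His-terbium Fab detection for a further 30 min.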

The target in another assay is T2, XIAP BIR2-3 (Homo sapiens, UniProt P98170, C202A/C213G).
T2 construct: His-BIR2-3 (125-356, C202A/C213G, XIAP)
In words: XIAP-BIR2-3 dimeric SMAC Peptide Homogeneous Time Resolved Fluorescence (HTRF) Assay. The format is binding. The method, then: B. […] Assays were performed in black, flat-bottom, 384-well plates. […] Compounds were dissolved at 3 mM in dimethylsulfoxide (DMSO) and evaluated at eleven serially diluted concentrations. IC50 and Ki values were derived by non-linear regression analysis.
On the technique in general: In TR-FRET formats the signal depends on donor and acceptor labels being close together.

Setting [1] is: 1 nM N-His-BIR3 (241-356, XIAP), 5 nM fluorescein labeled SMAC peptide, HTRF signal, read-out: XIAP BIR3 IC50.
Where [2] appears, read: 0.5 nM N-His-BIR2-3 (125-356, C202A/C213G, XIAP), 20 nM fluorescein labeled dimeric SMAC peptide, HTRF signal, read-out: XIAP BIR2-3 IC50.

pIC50: −log10 of the molar value. Like-named read-outs stand apart in the source and are kept apart here.

T2 sequence (P98170 125-356 C202A/C213G): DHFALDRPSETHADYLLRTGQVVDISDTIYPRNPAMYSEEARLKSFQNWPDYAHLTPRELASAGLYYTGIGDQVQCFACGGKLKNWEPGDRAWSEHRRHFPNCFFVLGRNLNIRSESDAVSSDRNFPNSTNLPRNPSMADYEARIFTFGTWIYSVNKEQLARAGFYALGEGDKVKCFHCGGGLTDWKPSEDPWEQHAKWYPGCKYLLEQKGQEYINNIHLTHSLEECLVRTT
T1 sequence (P98170 241-356): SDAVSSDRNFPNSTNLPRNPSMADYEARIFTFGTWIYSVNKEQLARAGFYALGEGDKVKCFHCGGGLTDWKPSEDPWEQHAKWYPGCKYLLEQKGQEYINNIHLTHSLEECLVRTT

On to `CN[C@@H](C)C(=O)N[C@H](C(=O)N1C[C@@H](c2ccc3c(c2)CN(C(=O)[C@@H](NC(=O)[C@H](C)NC)C(C)(C)C)[C@H](C(=O)N[C@@H]2CCCc4ccccc42)C3)C[C@H]1C(=O)N[C@@H](Cc1ccccc1)C(=O)O)C(C)(C)C` [Example 77, (S)-2-((2S,4R)-1-((S)-3,3-Dimethyl-2-((S)-2-(methylamino)propanamido)butanoyl)-4-((S)-2-((S)-3,3-dimethyl-2-((S)-2-(methylamino)propanamido)butanoyl)-3-(((R)-1,2,3,4-tetrahydronaphthalen-1-yl)carbamoyl)-1,2,3,4-tetrahydroisoquinolin-7-yl)pyrrolidine-2-carboxamido)-3-phenylpropanoic acid], for which the pIC50 (commonly −log10 of the IC50, conventionally taken in molar units) was 8.77 on XIAP BIR3 (setting [1]) and 9.10 at XIAP BIR2-3 (setting [2]).
For `CN[C@@H](C)C(=O)N[C@H](C(=O)N1Cc2cc(C3C[C@@H](C(=O)N[C@H](CO)Cc4ccccc4)N(C(=O)[C@@H](NC(=O)[C@H](C)NC)C(C)(C)C)C3)ccc2C[C@H]1C(=O)NC1CCCc2ccccc21)C(C)(C)C` (stereo in doubt) [Example 74, (S)-2-((S)-3,3-Dimethyl-2-((S)-2-(methylamino)propanamido)butanoyl)-7-((3S,5S)-1-((S)-3,3-dimethyl-2-((S)-2-(methylamino)propanamido)butanoyl)-5-(((S)-1-hydroxy-3-phenylpropan-2-yl)carbamoyl)pyrrolidin-3-yl)-N-((R)-1,2,3,4-tetrahydronaphthalen-1-yl)-1,2,3,4-tetrahydroisoquinoline-3-carboxamide] the same measures were 7.87 and 8.59.
As for `CN[C@@H](C)C(=O)N[C@H](C(=O)N1C[C@@H](c2ccc3c(c2)CN(C(=O)[C@@H](NC(=O)[C@H](C)NC)C(C)(C)C)[C@H](C(=O)N[C@@H]2CCCc4ccccc42)C3)C[C@H]1C(=O)N[C@@H](Cc1ccccc1)C(=O)NCCc1ccccc1)C(C)(C)C` [Example 66, (S)-2-((S)-3,3-Dimethyl-2-((S)-2-(methylamino)propanamido)butanoyl)-7-((3R,5S)-1-((S)-3,3-dimethyl-2-((S)-2-(methylamino)propanamido)butanoyl)-5-(((S)-1-oxo-1-(phenethylamino)-3-phenylpropan-2-yl)carbamoyl)pyrrolidin-3-yl)-N-((R)-1,2,3,4-tetrahydronaphthalen-1-yl)-1,2,3,4-tetrahydroisoquinoline-3-carboxamide], the pIC50 on XIAP BIR3 is 7.88; at XIAP BIR2-3 it was 8.51.
On to `CN[C@@H](C)C(=O)N[C@H](C(=O)N1Cc2cc(O[C@H]3C[C@@H](C(=O)N[C@@H]4CCCc5ccccc54)N(C(=O)[C@@H](NC(=O)[C@H](C)NC)C(C)(C)C)C3)ccc2C[C@H]1C(=O)N[C@@H]1CCCc2ccccc21)C(C)(C)C` [Example 21, (S)-2-((S)-3,3-Dimethyl-2-((S)-2-(methylamino)propanamido)butanoyl)-7-(((3S,5S)-1-((S)-3,3-dimethyl-2-((S)-2-(methylamino)propanamido)butanoyl)-5-(((R)-1,2,3,4-tetrahydronaphthalen-1-yl)carbamoyl)pyrrolidin-3-yl)oxy)-N—((R)-1,2,3,4-tetrahydronaphthalen-1-yl)-1,2,3,4-tetrahydroisoquinoline-3-carboxamide], for which the pIC50 is 7.52 against XIAP BIR3 and 8.52 against XIAP BIR2-3.
In the case of `CN[C@@H](C)C(=O)N[C@H](C(=O)N1Cc2ccc(C(=O)N[C@H]3C[C@@H](C(=O)N[C@@H]4CCCc5ccccc54)N(C(=O)[C@@H](NC(=O)[C@H](C)NC)C(C)(C)C)C3)cc2C[C@H]1C(=O)N[C@@H]1CCCc2ccccc21)C(C)(C)C` [Example 25, (S)-2-((S)-3,3-Dimethyl-2-((S)-2-(methylamino)propanamido)butanoyl)-N6-((3S,5S)-1-((S)-3,3-dimethyl-2-((S)-2-(methylamino)propanamido)butanoyl)-5-(((R)-1,2,3,4-tetrahydronaphthalen-1-yl)carbamoyl)pyrrolidin-3-yl)-N^3—((R)-1,2,3,4-tetrahydronaphthalen-1-yl)-1,2,3,4-tetrahydroisoquinoline-3,6-dicarboxamide], the pIC50 on XIAP BIR3 (setting [1]) is 8.40; at XIAP BIR2-3 (setting [2]), 8.52.
The like results for `CN[C@@H](C)C(=O)N[C@H](C(=O)N1C[C@@H](c2ccc3c(c2)CN(C(=O)[C@@H](NC(=O)[C@H](C)NC)C(C)(C)C)[C@H](C(=O)N[C@@H]2CCCc4ccccc42)C3)C[C@H]1C(=O)N[C@@H](Cc1ccccc1)C(=O)N(C)CCC(C)C)C(C)(C)C` [Example 53, (S)-2-((S)-3,3-Dimethyl-2-((S)-2-(methylamino)propanamido)butanoyl)-7-((3R,5S)-1-((S)-3,3-dimethyl-2-((S)-2-(methylamino)propanamido)butanoyl)-5-(((S)-1-(isopentyl(methyl)amino)-1-oxo-3-phenylpropan-2-yl)carbamoyl)pyrrolidin-3-yl)-N-((R)-1,2,3,4-tetrahydronaphthalen-1-yl)-1,2,3,4-tetrahydroisoquinoline-3-carboxamide] were, in that order, 7.27 and 7.06.
Regarding “(S)-2-((S)-3-Cyclopentyl-2-((S)-2-(methylamino) propanamido)propanoyl)-N^7-((3S,5S)-1-((S)-3,3-dimethyl-2- ((S)-2-(methylamino)propanamido)butanoyl)-5-(((R)-1,2,3,4- tetrahydronaphthalen-1-yl)carbamoyl)pyrrolidin-3-yl)-N^3- ((R)-1,2,3,4-tetrahydronaphthalen-1-yl)-1,2,3,4- tetrahydroisoquinoline-3,7-dicarboxamide [Example 6]”, the pIC50 on XIAP BIR3 (setting [1]) is 7.85; on XIAP BIR2-3 (setting [2]), 8.70.
As to `CN[C@@H](C)C(=O)N[C@H](C(=O)N1C[C@@H](c2ccc3c(c2)CN(C(=O)[C@@H](NC(=O)[C@H](C)NC)C(C)(C)C)[C@H](C(=O)N[C@@H]2CCCc4ccccc42)C3)C[C@H]1C(=O)N[C@@H](Cc1ccccc1)C(=O)Nc1cccc(C#N)c1)C(C)(C)C` [Example 59, (S)-7-((3R,5S)-5-(((S)-1-((3-Cyanophenyl)amino)-1-oxo-3-phenylpropan-2-yl)carbamoyl)-1-((S)-3,3-dimethyl-2-((S)-2-(methylamino)propanamido)butanoyl)pyrrolidin-3-yl)-2-((S)-3,3-dimethyl-2-((S)-2-(methylamino)propanamido)butanoyl)-N-((R)-1,2,3,4-tetrahydronaphthalen-1-yl)-1,2,3,4-tetrahydroisoquinoline-3-carboxamide], the pIC50 on XIAP BIR3 (setting [1]) is 8.17; at XIAP BIR2-3 (setting [2]) it was 8.66.
The like results for `CN[C@@H](C)C(=O)N[C@H](C(=O)N1C[C@@H](c2ccc3c(c2)CN(C(=O)[C@@H](NC(=O)[C@H](C)NC)C(C)(C)C)[C@H](C(=O)N[C@@H]2CCCc4ccccc42)C3)C[C@H]1C(=O)N[C@@H](Cc1ccccc1)C(=O)N(C)CCOC)C(C)(C)C` [Example 55, (S)-2-((S)-3,3-Dimethyl-2-((S)-2-(methylamino)propanamido)butanoyl)-7-((3R,5S)-1-((S)-3,3-dimethyl-2-((S)-2-(methylamino)propanamido)butanoyl)-5-(((S)-1-((2-methoxyethyl)(methyl)amino)-1-oxo-3-phenylpropan-2-yl)carbamoyl)pyrrolidin-3-yl)-N-((R)-1,2,3,4-tetrahydronaphthalen-1-yl)-1,2,3,4-tetrahydroisoquinoline-3-carboxamide] were, in that order, 7.42 and 8.07.
On to `CN[C@@H](C)C(=O)N[C@H](C(=O)N1C[C@@H](c2ccc3c(c2)CN(C(=O)[C@@H](NC(=O)[C@H](C)NC)C(C)(C)C)[C@H](C(=O)N[C@@H]2CCCc4ccccc42)C3)C[C@H]1C(=O)N[C@@H](Cc1ccccc1)C(=O)NS(=O)(=O)C1CC1)C(C)(C)C` [Example 50, (S)-7-((3R,5S)-5-(((S)-1-(Cyclopropanesulfonamido)-1-oxo-3-phenylpropan-2-yl)carbamoyl)-1-((S)-3,3-dimethyl-2-((S)-2-(methylamino)propanamido)butanoyl)pyrrolidin-3-yl)-2-((S)-3,3-dimethyl-2-((S)-2-(methylamino)propanamido)butanoyl)-N-((R)-1,2,3,4-tetrahydronaphthalen-1-yl)-1,2,3,4-tetrahydroisoquinoline-3-carboxamide], for which the pIC50 on XIAP BIR3 (setting [1]) was 9.05; at XIAP BIR2-3 (setting [2]), 8.92.
The like results for `CN[C@@H](C)C(=O)N[C@H](C(=O)N1C[C@@H](c2ccc3c(c2)CN(C(=O)[C@@H](NC(=O)[C@H](C)NC)C(C)(C)C)[C@H](C(=O)N[C@@H]2CCCc4ccccc42)C3)C[C@H]1C(=O)N[C@@H](Cc1ccccc1)c1noc(C)n1)C(C)(C)C` [Example 80, (S)-2-((S)-3,3-Dimethyl-2-((S)-2-(methylamino)propanamido)butanoyl)-7-((3R,5S)-1-((S)-3,3-dimethyl-2-((S)-2-(methylamino)propanamido)butanoyl)-5-(((S)-1-(5-methyl-1,2,4-oxadiazol-3-yl)-2-phenylethyl)carbamoyl)pyrrolidin-3-yl)-N—((R)-1,2,3,4-tetrahydronaphthalen-1-yl)-1,2,3,4-tetrahydroisoquinoline-3-carboxamide] were, in that order, 8.14 and 8.59.

Source of the values: patent US8889712B2, “IAP antagonists” (Bristol-Myers Squibb Company, priority 2012, dated 2014).
